Data published in US20260216137A1, “COMPOSITION FOR PREVENTING OR TREATING INFLAMMATORY SKIN DISEASES,CONTAINING 1H-PYRAZOLE-3-AMIDE COMPOUND DERIVATIVE” (AJOU UNIVERSITY INDUSTRY-ACADEMIC COOPERATION FOUNDATION, priority 2023, published 2026).

Columns and labels:
Type in all cases: in vivo
psoriasis mouse model [1] = test: Psoriasis mouse model (Aldara cream): PASI score and spleen weight; details: Aldara cream psoriasis mice; intraperitoneal daily, Compound 1 20 mg/kg, Compound 2 10 mg/kg; FIG. 2
Procedure: (§1) The hair on the backs of 7-week-old mice was removed, and then 62.5 mg of Aldara cream was applied daily for 4 days. 1% DMSO and 5% kolliphor in PBS were mixed to be injected into the vehicle intraperitoneally daily. 20 mg/kg of Compound 1, 10 mg/kg of Compound 2, and 10 mg/kg of MTx were prepared in body weight×[…], which was injected intraperitoneally daily. After injection, the mice were left for 30 minutes for sufficient suppression of cannabinoid receptor 1, applied with Aldara cream, and then sacrificed on day 5 from day 1 at which the Aldara cream was first applied, and skin tissues were made into paraffin blocks. These were evenly cut into 4 μm thick pieces, and immunochemical staining was performed.

TNF-α = test: Psoriasis mouse model: TNF-α expression by immunohistochemical staining; details: Aldara cream psoriasis mice; intraperitoneal daily, Compound 1 20 mg/kg, Compound 2 10 mg/kg; FIG. 4
Procedure: as §1
(§2) For immunohistochemical staining, the slides were placed in a 60° C. oven for 1 hour, rinsed with xylene solution for 5 minutes, 100% EtOH for 5 minutes, 70% EtOH for 5 minutes, distilled water, and PBS, then immersed in citrate buffer, placed in a 100° C. oven for 30 minutes, and slowly cooled at room temperature for 45 minutes. After rinsing with distilled water, the slides were soaked in PBS for 5 minutes, sprayed with 0.25% TritonX-100, and left for 10 minutes to disrupt the cell membrane and allow the antibodies to penetrate. […]
(§3) The signals of TNF-α and IL-1B, stained brown, were quantified through immunohistochemical staining.

[2] = system: contact dermatitis mouse model; test: Contact dermatitis mouse model: ear skin thickness by hematoxylin/eosin staining; details: oxazolone contact dermatitis mice; intraperitoneal daily, Compound 2 20 mg/kg, Compound 1 10 mg/kg; FIG. 7
Procedure: After removing hair from the ears of 7-week-old mice, on the day after hair removal (day 1), oxazolone (4-ethoxymethylene-2-phenyl-2-oxazolin-5-one, cat #E0753-1G, sigma-Aldrich) was mixed in acetone and olive oil in a concentration of 2%, which was then applied to the inner and outer sides of the ears by 5 μl each. 1% DMSO and 5% kolliphor in PBS were mixed to be injected into the vehicle intraperitoneally daily. Intraperitoneal injection was conducted daily by 20 mg/kg for Compound 2 and 10 mg/kg for Compound 1 with a 30 interval for sufficient suppression of cannabinoid receptor 1 after the injection, and then the size of the ears was measured, followed by application of oxazolone (on days 1 and 6). On day 6, 1% oxazolone was prepared and applied to the inner and outer side of the ears by 5 μl each, and on day 7, the mice were sacrificed, with the ears formed into paraffin blocks and then cut into 4 μm thick pieces to be placed on slides. […]
The slides were placed in a 60° C. oven for 1 hour, rinsed with xylene solution for 5 minutes, 100% EtOH for 5 minutes, 70% EtOH for 5 minutes, distilled water, and PBS, and then immersed in hematoxylin for 10 seconds and eosin for 3 seconds. […] Each section of skin tissue was photographed using a Leica microscope and then quantified by setting three sections per tissue as the average.

[3] = system: contact dermatitis mouse model; test: Contact dermatitis mouse model (oxazolone on ears): symptoms of dermatitis; details: oxazolone contact dermatitis mice; intraperitoneal daily, Compound 2 20 mg/kg, Compound 1 10 mg/kg; FIG. 6
Procedure: After removing hair from the ears of 7-week-old mice, on the day after hair removal (day 1), oxazolone (4-ethoxymethylene-2-phenyl-2-oxazolin-5-one, cat #E0753-1G, sigma-Aldrich) was mixed in acetone and olive oil in a concentration of 2%, which was then applied to the inner and outer sides of the ears by 5 μl each. 1% DMSO and 5% kolliphor in PBS were mixed to be injected into the vehicle intraperitoneally daily. Intraperitoneal injection was conducted daily by 20 mg/kg for Compound 2 and 10 mg/kg for Compound 1 with a 30 interval for sufficient suppression of cannabinoid receptor 1 after the injection, and then the size of the ears was measured, followed by application of oxazolone (on days 1 and 6). On day 6, 1% oxazolone was prepared and applied to the inner and outer side of the ears by 5 μl each, and on day 7, the mice were sacrificed, with the ears formed into paraffin blocks and then cut into 4 μm thick pieces to be placed on slides.
The 2% oxazolone used on day 1 was finally prepared in a volume of 800 μl for 20 mice, 16 mg of oxazolone was first dissolved in 160 μl of olive oil, then 640 μl of acetone was additionally mixed, and 10 μl of the mixture was applied on both ears, 5 μl for the front and 5 μl for the back per ear. […]

psoriasis mouse model [4] = test: Psoriasis mouse model: skin thickness by hematoxylin/eosin staining; details: Aldara cream psoriasis mice; intraperitoneal daily, Compound 1 20 mg/kg, Compound 2 10 mg/kg; FIG. 3
Procedure: as §1
The slides were placed in a 60° C. oven for 1 hour, rinsed with xylene solution for 5 minutes, 100% EtOH for 5 minutes, 70% EtOH for 5 minutes, distilled water, and PBS, and then immersed in hematoxylin for 10 seconds and eosin for 3 seconds. Afterwards, they were rinsed with 70% EtOH and 100% EtOH, immersed in xylene for 20 seconds, sprayed with mounting solution, and covered with a cover glass. Each section of the skin tissue was photographed using a Leica microscope and then quantified by setting three sections per tissue as the average.

IL-17A = test: Contact dermatitis mouse model: IL-17A expression by immunohistochemical staining; details: oxazolone contact dermatitis mice; intraperitoneal daily, Compound 2 20 mg/kg, Compound 1 10 mg/kg; FIG. 9
Procedure: as §2, with “penetrate. After rinsing with 0.1% Tween 20 in PBS (hereinafter referred to as PBST), hydrogen peroxide block buffer (abcam59717) was sprayed and left for 10 minutes.” for “penetrate.”
(§4) After removing hair from the ears of 7-week-old mice, on the day after hair removal (day 1), oxazolone (4-ethoxymethylene-2-phenyl-2-oxazolin-5-one, cat #E0753-1G, sigma-Aldrich) was mixed in acetone and olive oil in a concentration of 2%, which was then applied to the inner and outer sides of the ears by 5 μl each. […] Intraperitoneal injection was conducted daily by 20 mg/kg for Compound 2 and 10 mg/kg for Compound 1 with a 30 interval for sufficient suppression of cannabinoid receptor 1 after the injection, and then the size of the ears was measured, followed by application of oxazolone (on days 1 and 6). […]

IL-1B = test: Contact dermatitis mouse model: IL-1β expression by immunohistochemical staining; details: oxazolone contact dermatitis mice; intraperitoneal daily, Compound 2 20 mg/kg, Compound 1 10 mg/kg; FIG. 8
Procedure: as §2, with “penetrate. After rinsing with 0.1% Tween 20 in PBS (hereinafter referred to as PBST), hydrogen peroxide block buffer (abcam59717) was sprayed and left for 10 minutes.” for “penetrate.”
as §4

IL-1ß = test: Psoriasis mouse model: IL-1β expression by immunohistochemical staining; details: Compound 1 20 mg/kg; for expression level of IL-1ß in the epidermis compared to vehicle group: Aldara cream psoriasis mice, intraperitoneal daily, Compound 2 10 mg/kg, FIG. 5
Procedure: as §1
For immunohistochemical staining, the slides were placed in a 60° C. oven for 1 hour, rinsed with xylene solution for 5 minutes, 100% EtOH for 5 minutes, 70% EtOH for 5 minutes, distilled water, and PBS, then immersed in citrate buffer, placed in a 100° C. oven for 30 minutes, and slowly cooled at room temperature for 45 minutes. After rinsing with distilled water, the slides were soaked in PBS for 5 minutes, sprayed with 0.25% TritonX-100, and left for 10 minutes to disrupt the cell membrane and allow the antibodies to penetrate. After rinsing with 0.1% Tween 20 in PBS (hereinafter referred to as PBST), hydrogen peroxide block buffer (abcam59717) was sprayed and left for 10 minutes. Afterwards, after rinsing with PBST, the slides were sprayed with 150 μl of normal blocking serum (VectastatinABC kit, PK-4001) mixed in 10 ml of PBS. The primary antibody was mixed with R.T.U animal free block and diluent (SP-5035) in 1:500, spread on the slides, and reacted in a refrigerator at 4° C. for 14 hours. After rinsing with PBST, the secondary antibody was applied for 1 hour and then HRP (VectastatinABC reagent) for 30 minutes. […]
as §3

SMILES: Cc1c(C(=O)C(=O)NCCO)nn(-c2ccc(Cl)cc2Cl)c1-c1ccc(Cl)cc1 [Compound 1, 2-(5-(4-chlorophenyl)-1-(2,4-dichlorophenyl)-4-methyl-1H-pyrazol-3-yl)-N-(2-hydroxyethyl)-2-oxoacetamide]
- PASI score compared to vehicle group (psoriasis mouse model [1]): lower
- spleen weight compared to vehicle group (psoriasis mouse model [1]): decrease
- expression level of TNF-α in the epidermis compared to vehicle group (TNF-α): significantly reduced
- thickness of the ear skin compared to vehicle group [2]: significantly reduced
- symptoms of contact dermatitis compared to vehicle group [3]: reduced
- thickness of the epidermis compared to vehicle group (psoriasis mouse model [4]): significantly reduced
- expression level of IL-17A compared to vehicle group (IL-17A): significantly reduced
- expression level of IL-1B in the epidermis compared to vehicle group (IL-1B): significantly reduced
- expression level of IL-1ß in the epidermis compared to vehicle group (IL-1ß): significantly reduced
- inhibitory effect on inflammatory factor expression, Compound 1 versus Compound 2 (IL-1ß; psoriasis mice, comparison stated after the TNF-α and IL-1ß results, Compound 2 10 mg/kg intraperitoneal): higher than that of Compound 2

SMILES: Cc1c(/C=C/C(=O)NCc2cccc(Cl)c2)nn(-c2ccc(Cl)cc2Cl)c1-c1ccc(Cl)cc1 [Compound 2, (E)-N-(3-chlorobenzyl)-3-(5-(4-chlorophenyl)-1-(2,4-dichlorophenyl)-4-methyl-1H-pyrazol-3-yl) acrylamide]
- PASI score compared to vehicle group (psoriasis mouse model [1]): lower
- spleen weight compared to vehicle group (psoriasis mouse model [1]): decrease
- expression level of TNF-α in the epidermis compared to vehicle group (TNF-α): significantly reduced
- thickness of the ear skin compared to vehicle group [2]: significantly reduced
- symptoms of contact dermatitis compared to vehicle group [3]: reduced
- thickness of the epidermis compared to vehicle group (psoriasis mouse model [4]): significantly reduced
- expression level of IL-17A compared to vehicle group (IL-17A): significantly reduced
- expression level of IL-1B in the epidermis compared to vehicle group (IL-1B): significantly reduced
- expression level of IL-1ß in the epidermis compared to vehicle group (IL-1ß): significantly reduced
